Key:
[1] = 298.15 K, 101.33 kPa, Liquid; for viscosity: Capillary tube (Ostwald / Ubbelohde) method; for speed of sound: Sing-around technique in a fixed-path interferometer
[2] = xn = mol fraction of the nth substance listed; details: 298.15 K, 101 kPa, Liquid; for viscosity: Capillary tube (Ostwald / Ubbelohde) method; for speed of sound: Sing-around technique in a fixed-path interferometer

CCCCCCCO [heptan-1-ol]
[1]
Details | mass density [kg/m3] | speed of sound [m/s] | viscosity [mPa·s]
– | 818.851 | 1327.4 | 5.886

COCC(C)OCC(C)OC (centres undefined) [2-methoxy-1-(2-methoxy-1-methylethoxy)propane]
[1]
Details | mass density [kg/m3] | speed of sound [m/s] | viscosity [mPa·s]
– | 898.566 | 1205 | 0.9926

CO [methanol]
[1]
Details | mass density [kg/m3] | speed of sound [m/s] | viscosity [mPa·s]
– | 786.548 | 1102.6 | 0.5444

CCCCCO [pentan-1-ol]
[1]
Details | mass density [kg/m3] | speed of sound [m/s] | viscosity [mPa·s]
– | 811.001 | 1276 | 3.495

CCCO [propan-1-ol]
[1]
Details | mass density [kg/m3] | speed of sound [m/s] | viscosity [mPa·s]
– | 799.666 | 1206.5 | 1.959

COCC(C)OCC(C)OC (centres undefined) [2-methoxy-1-(2-methoxy-1-methylethoxy)propane] + CCCO
[2]
Details | mass density [kg/m3] | speed of sound [m/s] | viscosity [mPa·s]
x1 = 0.0008 | – | – | 1.955
x1 = 0.0061 | – | – | 1.928
x1 = 0.0186 | – | – | 1.866
x1 = 0.0409 | – | – | 1.775
x1 = 0.0653 | 815.198 | 1210.9 | –
x1 = 0.0666 | – | – | 1.678
x1 = 0.0903 | – | – | 1.599
x1 = 0.1089 | 824.018 | 1212.8 | –
x1 = 0.1309 | – | – | 1.494
x1 = 0.1451 | 830.582 | 1214 | –
x1 = 0.1846 | – | – | 1.382
x1 = 0.2124 | 841.11 | 1215.2 | –
x1 = 0.267 | – | – | 1.264
x1 = 0.2694 | 848.766 | 1216 | –
x1 = 0.3041 | 852.935 | 1215.8 | –
x1 = 0.3136 | – | – | 1.211
x1 = 0.3359 | 856.509 | 1215.6 | –
x1 = 0.345 | – | – | 1.184
x1 = 0.3718 | – | – | 1.164
x1 = 0.3913 | 862.204 | 1215.6 | –
x1 = 0.4516 | – | – | 1.112
x1 = 0.4561 | 868.154 | 1215.4 | –
x1 = 0.502 | 872.013 | 1215.3 | –
x1 = 0.5198 | – | – | 1.081
x1 = 0.5464 | 875.439 | 1214.6 | –
x1 = 0.5625 | – | – | 1.066
x1 = 0.6111 | – | – | 1.05
x1 = 0.6139 | 880.179 | 1213.9 | –
x1 = 0.6459 | – | – | 1.043
x1 = 0.6513 | 882.571 | 1213.2 | –
x1 = 0.708 | 885.911 | 1212.5 | –
x1 = 0.7346 | – | – | 1.021
x1 = 0.7572 | 888.492 | 1211.4 | –
x1 = 0.7703 | – | – | 1.012
x1 = 0.8098 | 891.002 | 1210.3 | –
x1 = 0.8317 | – | – | 1.005
x1 = 0.8457 | 892.536 | 1209.5 | –
x1 = 0.8591 | – | – | 1.002
x1 = 0.9067 | 894.986 | 1207.9 | –
x1 = 0.9511 | – | – | 0.9968
x1 = 0.9576 | 896.939 | 1206.4 | –
x1 = 0.9746 | 897.584 | 1206.1 | –
x1 = 0.9753 | – | – | 0.993
x1 = 0.9915 | – | – | 0.9927
